This is an account of results in patent US9834518B2, “Compounds for inhibiting cell proliferation in EGFR-driven cancers” (ARIAD Pharmaceuticals, Inc., priority 2011, dated 2017).

For assay [1], the target named is human EGFR (native sequence) (Homo sapiens, UniProt P00533). Description: Kinase inhibition, human EGFR (native sequence). The note with it: 10 μM ATP; 10 pt curves, 3 μM top concentration (singlicates). Type of assay: biochemical. As to the method:
(§1) Kinase inhibitory activity of the compounds was measured against human EGFR (native sequence) and against EGFR bearing the L858R mution and the L858R/T790M double mutation (EGFR, L858R, and L858R/T790M, respectively in Table 1). Additional assays can be conducted with EGFR deletion mutants such as delE746-A750 with or without the additional T790M mutation. Assay conditions included 10 pt curves with 3 μM top concentration (singlicates) and 10 μM ATP.

A further assay has as its system BAF3 PARENTAL
Description: Cell proliferation (MTT), BAF3 parental. Type of assay: cell-based. The note with it: Mus musculus. Here is the method:
(§2) We also assessed the antiproliferative activity of compounds of Formula (I) against BaF3 cells expressing the target EGFR mutations or control (i.e., cell lines expressing wildtype EGFR). Assays were conducted using MTT.

Assay [2] deals with BAF3 EGFR L858R-T790M PURO POOL. The experiment in a line: Cell proliferation (MTT), BAF3 EGFR L858R-T790M. Format: cell-based. The note with it: Ba/F3 EGFR. Here is the method:
as §2

Assay [3] addresses BAF3 EGFR DEL T790M PURO POOL (Homo sapiens, UniProt P00533, DEL746-750/T790M, cells depend on it). The experiment in a line: Cell proliferation (MTT), BAF3 EGFR DEL T790M. Type of assay: cell-based. As to the method: as §2
The target in assay [4] is EGFR bearing the L858R/T790M double mutation (Homo sapiens, UniProt P00533, L858R/T790M). The experiment in a line: Kinase inhibition, EGFR L858R/T790M. The note with it: 10 μM ATP; 10 pt curves, 3 μM top concentration (singlicates). Format: biochemical. Here is the method: as §1
EGFR bearing the L858R/T790M double mutation, sequence (P00533 25-1210 T790M/L858R): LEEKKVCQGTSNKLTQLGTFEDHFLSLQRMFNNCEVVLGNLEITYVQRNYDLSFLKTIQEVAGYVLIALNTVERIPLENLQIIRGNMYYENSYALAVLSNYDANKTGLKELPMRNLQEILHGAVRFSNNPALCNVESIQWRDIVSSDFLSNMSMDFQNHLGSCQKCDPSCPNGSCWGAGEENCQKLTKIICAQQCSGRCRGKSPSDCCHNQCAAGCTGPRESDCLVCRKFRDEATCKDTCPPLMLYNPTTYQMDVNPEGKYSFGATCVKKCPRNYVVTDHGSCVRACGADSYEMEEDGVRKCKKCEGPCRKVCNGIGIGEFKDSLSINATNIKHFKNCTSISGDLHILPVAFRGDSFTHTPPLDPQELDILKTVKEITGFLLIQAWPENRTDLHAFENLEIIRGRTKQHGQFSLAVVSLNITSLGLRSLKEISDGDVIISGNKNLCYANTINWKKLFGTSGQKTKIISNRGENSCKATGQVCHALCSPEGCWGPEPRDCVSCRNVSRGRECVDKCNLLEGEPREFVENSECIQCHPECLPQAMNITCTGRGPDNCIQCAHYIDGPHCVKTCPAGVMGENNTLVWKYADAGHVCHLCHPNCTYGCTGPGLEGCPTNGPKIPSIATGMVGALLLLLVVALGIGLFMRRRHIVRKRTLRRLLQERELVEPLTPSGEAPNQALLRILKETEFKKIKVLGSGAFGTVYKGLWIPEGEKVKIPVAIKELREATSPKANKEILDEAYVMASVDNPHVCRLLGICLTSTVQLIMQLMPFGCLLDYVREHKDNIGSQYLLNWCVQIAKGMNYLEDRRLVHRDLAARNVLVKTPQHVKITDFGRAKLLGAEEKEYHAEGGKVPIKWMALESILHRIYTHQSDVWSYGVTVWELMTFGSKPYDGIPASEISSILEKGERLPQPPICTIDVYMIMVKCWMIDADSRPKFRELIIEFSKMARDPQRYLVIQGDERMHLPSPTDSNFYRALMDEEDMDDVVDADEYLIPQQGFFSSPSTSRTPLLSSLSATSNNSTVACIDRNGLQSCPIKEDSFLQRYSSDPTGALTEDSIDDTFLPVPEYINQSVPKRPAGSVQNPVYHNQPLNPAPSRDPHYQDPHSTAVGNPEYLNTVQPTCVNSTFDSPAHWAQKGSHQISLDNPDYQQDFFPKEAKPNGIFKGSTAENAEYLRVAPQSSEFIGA
For assay [5], the target named is EGFR bearing the L858R mution (Homo sapiens, UniProt P00533, L858R). The experiment in a line: Kinase inhibition, EGFR L858R. Format: biochemical. The note with it: 10 μM ATP; 10 pt curves, 3 μM top concentration (singlicates). Here is the method:
as §1

Structures are written as SMILES.

human EGFR (native sequence), sequence (P00533 25-1210): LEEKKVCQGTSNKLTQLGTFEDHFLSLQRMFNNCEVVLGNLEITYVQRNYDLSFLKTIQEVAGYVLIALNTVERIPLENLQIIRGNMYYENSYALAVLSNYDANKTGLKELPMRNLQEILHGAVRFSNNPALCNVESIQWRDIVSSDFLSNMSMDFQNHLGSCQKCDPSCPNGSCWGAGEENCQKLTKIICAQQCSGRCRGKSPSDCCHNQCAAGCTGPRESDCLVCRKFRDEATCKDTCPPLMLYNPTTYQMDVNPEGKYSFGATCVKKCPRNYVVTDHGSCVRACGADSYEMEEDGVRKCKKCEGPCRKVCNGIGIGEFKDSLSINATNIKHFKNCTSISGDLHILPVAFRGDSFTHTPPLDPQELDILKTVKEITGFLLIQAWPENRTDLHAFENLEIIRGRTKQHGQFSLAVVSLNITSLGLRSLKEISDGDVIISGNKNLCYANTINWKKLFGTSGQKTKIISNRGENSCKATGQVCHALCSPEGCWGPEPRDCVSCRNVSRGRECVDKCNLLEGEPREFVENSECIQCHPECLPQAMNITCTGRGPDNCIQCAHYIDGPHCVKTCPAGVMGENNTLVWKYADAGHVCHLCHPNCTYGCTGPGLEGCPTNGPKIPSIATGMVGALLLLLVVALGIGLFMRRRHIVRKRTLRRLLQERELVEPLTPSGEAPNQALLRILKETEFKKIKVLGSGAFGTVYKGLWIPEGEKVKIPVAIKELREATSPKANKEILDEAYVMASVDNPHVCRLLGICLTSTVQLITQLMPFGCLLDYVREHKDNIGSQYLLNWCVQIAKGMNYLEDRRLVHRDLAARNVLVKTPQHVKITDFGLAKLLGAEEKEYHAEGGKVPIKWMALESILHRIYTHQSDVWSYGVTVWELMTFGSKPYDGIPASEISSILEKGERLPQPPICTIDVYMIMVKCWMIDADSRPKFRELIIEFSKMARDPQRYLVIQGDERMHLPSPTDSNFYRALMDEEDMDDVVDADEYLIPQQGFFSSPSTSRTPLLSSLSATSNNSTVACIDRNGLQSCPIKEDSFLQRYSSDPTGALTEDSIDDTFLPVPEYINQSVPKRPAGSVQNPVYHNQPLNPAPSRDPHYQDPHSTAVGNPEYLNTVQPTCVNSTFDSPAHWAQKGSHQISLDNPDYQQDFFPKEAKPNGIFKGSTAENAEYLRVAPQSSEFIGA
EGFR bearing the L858R mution, sequence (P00533 25-1210 L858R): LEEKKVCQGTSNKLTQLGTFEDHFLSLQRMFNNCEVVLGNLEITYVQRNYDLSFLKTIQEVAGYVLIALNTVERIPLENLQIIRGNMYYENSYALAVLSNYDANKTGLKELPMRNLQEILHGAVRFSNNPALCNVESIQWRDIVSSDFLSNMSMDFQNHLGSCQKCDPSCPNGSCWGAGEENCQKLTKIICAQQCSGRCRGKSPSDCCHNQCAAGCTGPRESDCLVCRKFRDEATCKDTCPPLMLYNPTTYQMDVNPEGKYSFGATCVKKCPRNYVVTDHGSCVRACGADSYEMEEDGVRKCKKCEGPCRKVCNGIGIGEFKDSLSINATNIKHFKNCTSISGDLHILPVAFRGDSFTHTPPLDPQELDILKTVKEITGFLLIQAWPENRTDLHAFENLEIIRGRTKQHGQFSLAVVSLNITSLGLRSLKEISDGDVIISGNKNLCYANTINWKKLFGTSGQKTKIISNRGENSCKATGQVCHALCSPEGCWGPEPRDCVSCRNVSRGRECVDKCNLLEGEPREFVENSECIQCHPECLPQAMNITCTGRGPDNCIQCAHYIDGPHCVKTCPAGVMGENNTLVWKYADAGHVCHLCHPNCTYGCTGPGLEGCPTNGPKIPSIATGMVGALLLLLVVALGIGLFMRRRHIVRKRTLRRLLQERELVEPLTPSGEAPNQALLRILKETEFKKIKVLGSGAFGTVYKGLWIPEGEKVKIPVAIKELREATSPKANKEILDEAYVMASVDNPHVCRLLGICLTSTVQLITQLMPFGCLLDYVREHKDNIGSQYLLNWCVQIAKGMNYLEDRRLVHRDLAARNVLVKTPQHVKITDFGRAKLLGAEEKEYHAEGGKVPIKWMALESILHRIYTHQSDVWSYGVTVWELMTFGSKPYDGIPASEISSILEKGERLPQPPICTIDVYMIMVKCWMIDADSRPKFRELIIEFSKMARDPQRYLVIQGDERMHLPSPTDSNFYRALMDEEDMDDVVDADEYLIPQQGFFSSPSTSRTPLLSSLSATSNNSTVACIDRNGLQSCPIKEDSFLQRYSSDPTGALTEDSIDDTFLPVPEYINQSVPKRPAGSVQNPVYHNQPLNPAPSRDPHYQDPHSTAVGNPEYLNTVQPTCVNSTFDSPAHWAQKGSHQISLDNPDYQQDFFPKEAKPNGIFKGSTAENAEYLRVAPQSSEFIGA
BAF3 EGFR DEL T790M PURO POOL, sequence (P00533 with tags, fused parts or gaps DEL746-750/T790M): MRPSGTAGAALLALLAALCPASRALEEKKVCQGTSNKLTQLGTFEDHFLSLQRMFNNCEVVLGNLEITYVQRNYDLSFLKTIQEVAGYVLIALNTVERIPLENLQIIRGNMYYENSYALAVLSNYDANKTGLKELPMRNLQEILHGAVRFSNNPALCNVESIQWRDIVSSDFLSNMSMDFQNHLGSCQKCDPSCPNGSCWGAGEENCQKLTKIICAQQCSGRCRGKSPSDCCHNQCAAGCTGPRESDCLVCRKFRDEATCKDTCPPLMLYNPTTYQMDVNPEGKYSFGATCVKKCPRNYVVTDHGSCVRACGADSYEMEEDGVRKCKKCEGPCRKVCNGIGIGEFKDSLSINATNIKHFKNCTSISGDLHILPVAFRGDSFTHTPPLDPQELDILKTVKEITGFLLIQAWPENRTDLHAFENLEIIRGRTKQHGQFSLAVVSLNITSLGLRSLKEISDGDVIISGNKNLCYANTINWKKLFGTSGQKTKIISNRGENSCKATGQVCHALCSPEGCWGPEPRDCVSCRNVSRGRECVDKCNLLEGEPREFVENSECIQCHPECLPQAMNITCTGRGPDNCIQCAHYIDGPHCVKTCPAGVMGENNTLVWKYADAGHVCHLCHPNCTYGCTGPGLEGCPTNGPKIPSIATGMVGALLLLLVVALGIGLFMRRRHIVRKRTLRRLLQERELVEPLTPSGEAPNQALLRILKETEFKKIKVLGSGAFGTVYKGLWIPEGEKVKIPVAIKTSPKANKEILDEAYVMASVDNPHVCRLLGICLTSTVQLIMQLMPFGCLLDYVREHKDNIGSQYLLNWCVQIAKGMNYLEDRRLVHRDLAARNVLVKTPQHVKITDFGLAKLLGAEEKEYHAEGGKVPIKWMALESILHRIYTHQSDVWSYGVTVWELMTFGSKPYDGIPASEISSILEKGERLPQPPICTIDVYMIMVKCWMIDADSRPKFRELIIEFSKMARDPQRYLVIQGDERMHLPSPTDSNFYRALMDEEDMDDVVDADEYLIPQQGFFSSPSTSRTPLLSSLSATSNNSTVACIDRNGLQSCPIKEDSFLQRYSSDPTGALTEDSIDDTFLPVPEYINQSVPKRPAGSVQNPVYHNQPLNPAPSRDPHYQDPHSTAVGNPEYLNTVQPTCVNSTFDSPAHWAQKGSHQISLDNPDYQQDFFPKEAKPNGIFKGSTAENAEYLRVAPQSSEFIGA

As a reminder, the IC50 is the concentration that gives 50% inhibition. With `C=CC(=O)Nc1cc(Nc2ncc(Cl)c(Nc3ccccc3P(C)(C)=O)n2)c(OC)cc1N1CCOCC1` [Example 32, N-(5-((5-chloro-4-((2-(dimethylphosphoryl)phenyl)amino)pyrimidin-2-yl)amino)-4-methoxy-2-morpholinophenyl)acrylamide], the concentration for half-maximal inhibition (IC50) in assay [1] was not below 250 nM; in the assay with BAF3 PARENTAL, not below 250 nM; in assay [2], 51 to 100 nM; in assay [3], less than 51 nM; in assay [4], less than 51 nM; in assay [5], less than 51 nM.

As to `COc1ccc(NC(=O)C=C(C)C)cc1Nc1ncc(Cl)c(Nc2ccccc2P(C)(C)=O)n1` [Example 5b, N-(3-((5-chloro-4-((2-(dimethylphosphoryl)phenyl)amino)pyrimidin-2-yl)amino)-4-methoxyphenyl)-3-methylbut-2-enamide], the concentration for half-maximal inhibition (IC50) (in the assay on BAF3 PARENTAL; in assay [3]; in assay [4]; in assay [5]) was not below 250 nM throughout.

Take `C=CC(=O)Nc1cc(Nc2ncc(Cl)c(Nc3ccccc3P(C)(C)=O)n2)c(OC)cc1N1CCN(C)CC1` [Example 18, N-(5-((5-chloro-4-((2-(dimethylphosphoryl)phenyl)amino)pyrimidin-2-yl)amino)-4-methoxy-2-(4-methylpiperazin-1-yl)phenyl)acrylamide]: the IC50 in assay [1] was 51 to 100 nM; in the assay with BAF3 PARENTAL, not below 250 nM; in assay [2], 51 to 100 nM; in assay [3], less than 51 nM; in assay [4] it was less than 51 nM; in assay [5], less than 51 nM.

As to `C=CC(=O)Nc1cccc(Nc2ncc(Cl)c(Nc3ccccc3P(C)(C)=O)n2)c1` [Example 5d, N-(3-((5-chloro-4-((2-(dimethylphosphoryl)phenyl)amino)pyrimidin-2-yl)amino)phenyl)acrylamide], the IC50 in assay [1] was 101 to 250 nM; in the assay with BAF3 PARENTAL, 51 to 100 nM; in assay [2], less than 51 nM; in assay [3] it was less than 51 nM; in assay [4], less than 51 nM; in assay [5], less than 51 nM.

Turning to `C#CC(=O)Nc1ccc(OC)c(Nc2ncc(Cl)c(Nc3ccccc3P(C)(C)=O)n2)c1` [Example 6a, N-(3-((5-chloro-4-((2-(dimethylphosphoryl)phenyl)amino)pyrimidin-2-yl)amino)-4-methoxyphenyl)propiolamide], the IC50 is less than 51 nM in assay [1]; not below 250 nM in the assay on BAF3 PARENTAL; not below 250 nM in assay [3]; less than 51 nM in assay [4]; less than 51 nM in assay [5].

As for `C=CC(=O)Nc1cc(Nc2ncc(Cl)c(Nc3ccccc3P(C)(C)=O)n2)c(OC)cc1N(C)CCN(C)CCOC` [Example 38, N-(5-((5-chloro-4-((2-(dimethylphosphoryl)phenyl)amino)pyrimidin-2-yl)amino)-4-methoxy-2-((2-((2-methoxyethyl)(methyl)amino)ethyl)(methyl)amino)phenyl)acrylamide], the IC50 in assay [1] was less than 51 nM; with BAF3 PARENTAL, not below 250 nM; in assay [2], less than 51 nM; in assay [3] it was less than 51 nM; in assay [4], less than 51 nM; in assay [5] it was less than 51 nM.

As for `C=CC(=O)Nc1cc(Nc2ncc(Cl)c(Nc3ccc(F)cc3P(C)(C)=O)n2)c(OC)cc1F` [Example 55, N-(5-((5-chloro-4-((2-(dimethylphosphoryl)-4-fluorophenyl)amino)pyrimidin-2-yl)amino)-2-fluoro-4-methoxyphenyl)acrylamide], the IC50 in assay [1] was 51 to 100 nM; in the assay on BAF3 PARENTAL, not below 250 nM; in assay [2], less than 51 nM; in assay [3], less than 51 nM; in assay [4], less than 51 nM; in assay [5], less than 51 nM.

`C=CC(=O)Nc1cc(Nc2ncc(Cl)c(Nc3ccccc3P(C)(C)=O)n2)c(OC)cc1OCC(COC)N(C)C` (centres unmarked) [Example 37, N-(5-((5-chloro-4-((2-(dimethylphosphoryl)phenyl)amino)pyrimidin-2-yl)amino)-2-(2-(dimethylamino)-3-methoxypropoxy)-4-methoxyphenyl)acrylamide]: the 50% inhibitory concentration (IC50) in assay [1] is less than 51 nM; in the assay with BAF3 PARENTAL it was not below 250 nM; in assay [2], less than 51 nM; in assay [3], less than 51 nM; in assay [4], less than 51 nM; in assay [5] it was less than 51 nM.

For `C=CC(=O)Nc1ccc(OC)c(Nc2nccc(Nc3ccccc3P(C)(C)=O)n2)c1` [Example 13, N-(3-((4-((2-(dimethylphosphoryl)phenyl)amino)pyrimidin-2-yl)amino)-4-methoxyphenyl)acrylamide], the IC50 is not below 250 nM in assay [1]; not below 250 nM in the assay with BAF3 PARENTAL; not below 250 nM in assay [2]; 101 to 250 nM in assay [3]; less than 51 nM in assay [4]; 51 to 100 nM in assay [5].

Consider `C/C=C/C(=O)Nc1ccc(OC)c(Nc2ncc(Cl)c(Nc3ccccc3P(C)(C)=O)n2)c1` [Example 5a, (E)-N-(3-((5-chloro-4-((2-(dimethylphosphoryl)phenyl)amino)pyrimidin-2-yl)amino)-4-methoxyphenyl)but-2-enamide], for which the IC50 (in the assay with BAF3 PARENTAL; in assay [3]; in assay [4]; in assay [5]) was not below 250 nM throughout.

Take `C=CC(=O)Nc1ccc(Nc2ncc(Cl)c(Nc3ccccc3P(C)(C)=O)n2)c(OC)c1` [Example 45, N-(4-((5-chloro-4-((2-(dimethylphosphoryl)phenyl)amino)pyrimidin-2-yl)amino)-3-methoxyphenyl)acrylamide]: the IC50 in assay [1] is not below 250 nM; in the assay on BAF3 PARENTAL it was not below 250 nM; in assay [3] it was not below 250 nM; in assay [4], not below 250 nM; in assay [5], 101 to 250 nM.

Regarding `C=CS(=O)(=O)Nc1ccc(OC)c(Nc2ncc(Cl)c(Nc3ccccc3P(C)(C)=O)n2)c1` [Example 7, N-(3-((5-chloro-4-((2-(dimethylphosphoryl)phenyl)amino)pyrimidin-2-yl)amino)-4-methoxyphenyl)ethenesulfonamide], the IC50 in assay [1] is less than 51 nM; with BAF3 PARENTAL, not below 250 nM; in assay [4], less than 51 nM; in assay [5], less than 51 nM.

In the case of `C=C(CNc1ccc(OC)c(Nc2ncc(Cl)c(Nc3ccccc3P(C)(C)=O)n2)c1)C(=O)OC` [Example 16, methyl 2-(((3-((5-chloro-4-((2-(dimethylphosphoryl)phenyl)amino)pyrimidin-2-yl)amino)-4-methoxyphenyl)amino)methyl)acrylate], the IC50 was not below 250 nM in assay [1], not below 250 nM in the assay on BAF3 PARENTAL, 101 to 250 nM in assay [4] and less than 51 nM in assay [5].

Turning to `C=CC(=O)Nc1ccc(OC)c(Nc2nc(Nc3ccccc3P(C)(C)=O)c3c(F)c[nH]c3n2)c1` [Example 23, N-(3-((4-((2-(dimethylphosphoryl)phenyl)amino)-5-fluoro-7H-pyrrolo[2,3-d]pyrimidin-2-yl)amino)-4-methoxyphenyl)acrylamide], the IC50 in assay [1] is not below 250 nM; in the assay on BAF3 PARENTAL, not below 250 nM; in assay [3] it was not below 250 nM; in assay [4], 101 to 250 nM; in assay [5] it was not below 250 nM.

On to `C=CC(=O)N[C@H]1CCC[C@@H](Nc2ncc(Cl)c(Nc3ccccc3P(C)(C)=O)n2)C1` (stereo in doubt) [Example 43, N-(3-((5-chloro-4-((2-(dimethylphosphoryl)phenyl)amino)pyrimidin-2-yl)amino)cyclohexyl)acrylamide], for which the IC50 (in assay [1]; in the assay on BAF3 PARENTAL; in assay [3]; in assay [4]; in assay [5]) was not below 250 nM each time.

Consider `C=CC(=O)N[C@@H]1CCC[C@@H](Nc2ncc(Cl)c(Nc3ccccc3P(C)(C)=O)n2)C1` (racemic) [Example 42, rac-N-((1R,3R)-3-((5-chloro-4-((2-(dimethylphosphoryl)phenyl)amino)pyrimidin-2-yl)amino)cyclohexyl)acrylamide], for which the half-maximal inhibitory concentration (IC50) (in assay [1]; in the assay on BAF3 PARENTAL; in assay [3]; in assay [4]; in assay [5]) was not below 250 nM each time.

As to `COc1ccc(NC(=O)/C=C/CN2CCOCC2)cc1Nc1ncc(Cl)c(Nc2ccccc2P(C)(C)=O)n1` [Example 3, (E)-N-(3-((5-chloro-4-((2-(dimethylphosphoryl)phenyl)amino)pyrimidin-2-yl)amino)-4-methoxyphenyl)-4-morpholinobut-2-enamide], the IC50 was not below 250 nM in assay [1], not below 250 nM in the assay with BAF3 PARENTAL, 51 to 100 nM in assay [4] and less than 51 nM in assay [5].

Regarding `COc1ccc(NC(=O)/C=C/CN2CCN(C)CC2)cc1Nc1ncc(Cl)c(Nc2ccccc2P(C)(C)=O)n1` [Example 4, (E)-N-(3-((5-chloro-4-((2-(dimethylphosphoryl)phenyl)amino)pyrimidin-2-yl)amino)-4-methoxyphenyl)-4-(4-methylpiperazin-1-yl)but-2-enamide], the half-inhibitory concentration (IC50) in assay [1] is not below 250 nM; in the assay with BAF3 PARENTAL, not below 250 nM; in assay [3], not below 250 nM; in assay [4], 101 to 250 nM; in assay [5] it was less than 51 nM.
